Results taken from the supplement of paper PMC10307832.

Assays:
Test in all cases: relative viability (nuclei count vs DMSO), 5 days (fraction); higher = more cells survive
[1] = compound: CN(C/C=C/C1=CC=C(C=C1)Cl)CC2=CC=CC=C2N(CCO)S(=O)(=O)C3=CC=C(C=C3)OC [KN-93] + CC(=O)Nc1cccc(-n2c(=O)n(C3CC3)c(=O)c3c(Nc4ccc(I)cc4F)n(C)c(=O)c(C)c32)c1 [Trametinib] (partner 0.02 µM)
Method in brief: (§1)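 Lung cancer cell lines in 1536-well plates were dosed by pin tool the day after seeding, either with one drug alone or with a fixed anchor-drug dose plus five library-drug doses (not always all listed) in √10 steps. After 5 days, cells were fixed and their nuclei stained in one step (final 0.05% Triton X-100, 1% formaldehyde, 1 ug/ml Hoechst), then counted on 4× images. Relative viability is the nuclei count in treated wells divided by that in vehicle wells. Values are medians of duplicate plates.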

[2] = compound: CN(C/C=C/C1=CC=C(C=C1)Cl)CC2=CC=CC=C2N(CCO)S(=O)(=O)C3=CC=C(C=C3)OC [KN-93] + CC1(C)CCC(c2ccc(Cl)cc2)=C(CN2CCN(c3ccc(C(=O)NS(=O)(=O)c4ccc(N[C@H](CCN5CCOCC5)CSc5ccccc5)c(S(=O)(=O)C(F)(F)F)c4)cc3)CC2)C1 [Navitoclax] (partner 0.5 µM)
Method in brief: as §1

[3] = compound: CN(C/C=C/C1=CC=C(C=C1)Cl)CC2=CC=CC=C2N(CCO)S(=O)(=O)C3=CC=C(C=C3)OC [KN-93] + CCNC(=O)c1noc(-c2cc(C(C)C)c(O)cc2O)c1-c1ccc(CN2CCOCC2)cc1 [Luminespib] (partner 0.01 µM)
Method in brief: as §1

[4] = compound: CN(C/C=C/C1=CC=C(C=C1)Cl)CC2=CC=CC=C2N(CCO)S(=O)(=O)C3=CC=C(C=C3)OC [KN-93] + NC(=O)Nc1cc(-c2cccc(F)c2)sc1C(=O)N[C@H]1CCCNC1 [AZD7762] (partner 0.2 µM)
Method in brief: as §1

[5] = compound: CN(C/C=C/C1=CC=C(C=C1)Cl)CC2=CC=CC=C2N(CCO)S(=O)(=O)C3=CC=C(C=C3)OC [KN-93] + Nc1ncn([C@H]2C[C@H](O)[C@@H](CO)O2)c(=O)n1 [Decitabine] (partner 2 µM)
Method in brief: as §1

## NCI-H2405
[1]; first compound 0.08 µM
  relative viability: 0.603
[1]; first compound 0.253 µM
  relative viability: 0.598
[1]; first compound 2.53 µM
  relative viability: 0.665
[1]; first compound 8 µM
  relative viability: 0.491
[2]; first compound 0.08 µM
  relative viability: 0.94
[2]; first compound 0.253 µM
  relative viability: 0.833
[2]; first compound 2.53 µM
  relative viability: 0.767
[2]; first compound 8 µM
  relative viability: 0.592
[3]; first compound 0.08 µM
  relative viability: 0.752
[3]; first compound 0.253 µM
  relative viability: 0.76
[3]; first compound 2.53 µM
  relative viability: 0.778
[3]; first compound 8 µM
  relative viability: 0.446
[4]; first compound 0.08 µM
  relative viability: 0.735
[4]; first compound 0.253 µM
  relative viability: 0.859
[4]; first compound 2.53 µM
  relative viability: 0.806
[4]; first compound 8 µM
  relative viability: 0.555
[5]; first compound 0.08 µM
  relative viability: 0.741
[5]; first compound 0.253 µM
  relative viability: 0.736
[5]; first compound 2.53 µM
  relative viability: 0.77
[5]; first compound 8 µM
  relative viability: 0.593

## NCI-H3122
[1]; first compound 0.08 µM
  relative viability: 0.2
[1]; first compound 0.253 µM
  relative viability: 0.21
[1]; first compound 2.53 µM
  relative viability: 0.264
[1]; first compound 8 µM
  relative viability: 0.194
[2]; first compound 0.08 µM
  relative viability: 1.11
[2]; first compound 0.253 µM
  relative viability: 1.1
[2]; first compound 2.53 µM
  relative viability: 1.1
[2]; first compound 8 µM
  relative viability: 0.846
[3]; first compound 0.08 µM
  relative viability: 0.0763
[3]; first compound 0.253 µM
  relative viability: 0.0918
[3]; first compound 2.53 µM
  relative viability: 0.0989
[3]; first compound 8 µM
  relative viability: 0.0487
[4]; first compound 0.08 µM
  relative viability: 0.892
[4]; first compound 0.253 µM
  relative viability: 1.11
[4]; first compound 2.53 µM
  relative viability: 1.12
[4]; first compound 8 µM
  relative viability: 0.934
[5]; first compound 0.08 µM
  relative viability: 0.364
[5]; first compound 0.253 µM
  relative viability: 0.398
[5]; first compound 2.53 µM
  relative viability: 0.359
[5]; first compound 8 µM
  relative viability: 0.367

## PC-3 [JPC-3]
[1]; first compound 0.08 µM
  relative viability: 0.703
[1]; first compound 0.253 µM
  relative viability: 0.533
[1]; first compound 2.53 µM
  relative viability: 0.674
[1]; first compound 8 µM
  relative viability: 0.608
[2]; first compound 0.08 µM
  relative viability: 0.75
[2]; first compound 0.253 µM
  relative viability: 0.824
[2]; first compound 2.53 µM
  relative viability: 0.913
[2]; first compound 8 µM
  relative viability: 0.64
[3]; first compound 0.08 µM
  relative viability: 0.572
[3]; first compound 0.253 µM
  relative viability: 0.838
[3]; first compound 2.53 µM
  relative viability: 0.632
[3]; first compound 8 µM
  relative viability: 0.577
[4]; first compound 0.08 µM
  relative viability: 0.813
[4]; first compound 0.253 µM
  relative viability: 0.757
[4]; first compound 2.53 µM
  relative viability: 0.781
[4]; first compound 8 µM
  relative viability: 0.714
[5]; first compound 0.08 µM
  relative viability: 0.786
[5]; first compound 0.253 µM
  relative viability: 0.781
[5]; first compound 2.53 µM
  relative viability: 0.919
[5]; first compound 8 µM
  relative viability: 0.739

## PC-14
[1]; first compound 0.08 µM
  relative viability: 0.553
[1]; first compound 0.253 µM
  relative viability: 0.802
[1]; first compound 2.53 µM
  relative viability: 0.696
[1]; first compound 8 µM
  relative viability: 0.524
[2]; first compound 0.08 µM
  relative viability: 0.851
[2]; first compound 0.253 µM
  relative viability: 1
[2]; first compound 2.53 µM
  relative viability: 1.21
[2]; first compound 8 µM
  relative viability: 0.977
[3]; first compound 0.08 µM
  relative viability: 0.151
[3]; first compound 0.253 µM
  relative viability: 0.154
[3]; first compound 2.53 µM
  relative viability: 0.13
[3]; first compound 8 µM
  relative viability: 0.138
[4]; first compound 0.08 µM
  relative viability: 0.331
[4]; first compound 0.253 µM
  relative viability: 0.316
[4]; first compound 2.53 µM
  relative viability: 0.527
[4]; first compound 8 µM
  relative viability: 0.343
[5]; first compound 0.08 µM
  relative viability: 0.205
[5]; first compound 0.253 µM
  relative viability: 0.2
[5]; first compound 2.53 µM
  relative viability: 0.244
[5]; first compound 8 µM
  relative viability: 0.194

## RERF-LC-KJ
[1]; first compound 0.08 µM
  relative viability: 0.924
[1]; first compound 0.253 µM
  relative viability: 0.869
[1]; first compound 2.53 µM
  relative viability: 0.83
[1]; first compound 8 µM
  relative viability: 0.624
[2]; first compound 0.08 µM
  relative viability: 0.863
[2]; first compound 0.253 µM
  relative viability: 0.954
[2]; first compound 2.53 µM
  relative viability: 0.651
[2]; first compound 8 µM
  relative viability: 0.673
[3]; first compound 0.08 µM
  relative viability: 1.21
[3]; first compound 0.253 µM
  relative viability: 1.51
[3]; first compound 2.53 µM
  relative viability: 1.16
[3]; first compound 8 µM
  relative viability: 0.559
[4]; first compound 0.08 µM
  relative viability: 0.707
[4]; first compound 0.253 µM
  relative viability: 0.898
[4]; first compound 2.53 µM
  relative viability: 1
[4]; first compound 8 µM
  relative viability: 0.753
[5]; first compound 0.08 µM
  relative viability: 0.627
[5]; first compound 0.253 µM
  relative viability: 0.753
[5]; first compound 2.53 µM
  relative viability: 0.722
[5]; first compound 8 µM
  relative viability: 0.346
